Laboratory results from patent US20210395327A1, “Growth Hormone-Releasing Hormone Antagonists and Uses Thereof” (United States Government As Represented By The Department …, priority 2019, published 2021).
Non-standard residues stand in square brackets, D forms with d. Residues, ends and D or L forms follow the SMILES beside them. *: point of attachment. Phe(4-Cl) = N[C@@H](Cc1ccc(Cl)cc1)C(=O)O; hArg = N=C(N)NCCCC[C@H](N)C(=O)O; 12Ado = NCCCCCCCCCCCC(=O)O; Nle = CCCC[C@H](N)C(=O)O; Abu = CC[C@H](N)C(=O)O; PhAc = O=C(Cc1ccccc1)*

How the values were obtained:
[1] = system: KATOIII stomach cancer cells; assay: In vitro cell viability, KATOIII; assay type: cell-based, human; details: antagonist 5 μM for 72 h, cell proliferation assay; MIA602 = 1
Protocol: (§1) The inhibitory effects of the various synthesized GHRH antagonists were tested in cell proliferation assays in various human cancer cell lines including stomach cancer (KATOIII, N87), colon cancer (HT-29), urothelial cancer (J82, RT4), pancreatic cancer (PANC-1, CFPAC-1), prostatic cancer (PC3), breast cancer (MX-1, HCC1806), ovarian cancer (SK-OV-3, OVCAR-3) and lung cancer (HCC827, H460).
(§2) Cell culture. Human cancer cell lines including pancreatic (PANC-1 and CFPAC-1), lung (HCC827 and H460), stomach (NCI-N87 and KATOIII), urothelial (J82, RT4), prostatic (PC3), breast (MX-1 and HCC 1806), colorectal (HT-29), and ovarian (SK-OV-3 and OVCAR-3) were obtained from the American Type Culture Collection (ATCC) and cultured at 37° C. in a humidified 95% air/5% CO2 atmosphere in the medium recommended by ATCC.
(§3) In vitro cell viability. Cell viability was analyzed as follows: cancer cells including pancreatic (PANC-1 and CFPAC-1), lung (HCC827 and H460), stomach (NCI-N87 and KATOIII), urothelial (J82, RT4), prostatic (PC3) and breast (MX-1 and HCC 1806), colorectal (HT-29) and ovarian (SK-OV-3 and OVCAR-3) were grown on 96 well plates to ˜60% confluence, the cells were starved for 24 h in culture medium containing 0.5% FBS. Cells were then treated with GHRH antagonists MIA602 AVR compounds at concentrations of 1, 2.5 or 5 μM, or vehicle (0.1% DMSO) in quintuplicates for 72 hours. The medium was replaced every 48 hours. Cell viability was measured using CellTiter 96 aqueous one solution kit (Promega). Inhibitory effects of tested AVR compounds in comparison to that of MIA602 are presented as inhibitory potency.
(§4) Inhibitory effects of selected AVR compounds in comparison to that of MIA602 are presented as inhibitory potency (e.g., percentage of inhibition). […] The cell lines tested including lung cancer HCC827 (FIG. 2A), pancreatic cancer CFPAC-1 (FIG. 2B), stomach cancer N87 (FIG. 2C), colon cancer HT-29 (FIG. 2D), breast cancers MX-1 and HCC1806 (FIGS. 2 E, F). Based on the results of cell proliferation assay after cancer cells were treated with antagonist at concentration of 5 μM for 72H, the relative inhibitory potency of AVR antagonists in comparison to MIA-602 is summarized in Table 3 A and B. Over 60 AVR compounds were tested in 12 cancer cell lines.

HCC827 lung cancer cells = assay: In vitro cell viability, HCC827; assay type: cell-based, human; details: antagonist 5 μM for 72 h, cell proliferation assay; MIA602 = 1
Protocol: as §1, §2, §3, §4
(§5) Based on the results of cell proliferation assay after cancer cells were treated with antagonist at concentration of 5 µM for 72H, * at concentration of 2 µM for 72 H.

[2] = system: CFPAC-1 pancreatic cancer cells; assay: In vitro cell viability, CFPAC-1; assay type: cell-based, human; details: antagonist 5 μM for 72 h, cell proliferation assay; MIA602 = 1
Protocol: as §1, §2, §3, §4, §5

[3] = target: T1, membrane GHRH-receptors on human anterior pituitary cells (Homo sapiens, UniProt Q02643); assay: Receptor binding, displacement of 125I-[His1,Nle27]-hGH-RH(1-32)NH2 on human pituitary membranes
T1 construct: Human pituitary was purchased from the National Hormone and Peptide Program; tissue National Hormone and Peptide Program; host or cells: human pituitary (membrane fractions)
T1 sequence (Q02643 23-423): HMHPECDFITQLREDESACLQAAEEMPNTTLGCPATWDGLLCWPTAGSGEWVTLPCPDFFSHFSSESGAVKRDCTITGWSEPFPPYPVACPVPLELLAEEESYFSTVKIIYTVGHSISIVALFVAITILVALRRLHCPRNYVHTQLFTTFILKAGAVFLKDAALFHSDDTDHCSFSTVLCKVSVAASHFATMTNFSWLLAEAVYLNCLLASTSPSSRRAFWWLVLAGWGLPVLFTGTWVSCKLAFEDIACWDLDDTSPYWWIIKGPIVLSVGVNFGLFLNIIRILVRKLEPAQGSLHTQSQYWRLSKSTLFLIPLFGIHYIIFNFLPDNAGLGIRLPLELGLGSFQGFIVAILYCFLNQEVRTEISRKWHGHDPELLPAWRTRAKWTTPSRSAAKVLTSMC
Protocol: Receptor binding affinities in vitro. Preparation of human pituitary membrane fractions and receptor binding of analogs of GH-RH were performed (Halmos G, Rekasi Z, Szoke B, Schally A V. (1993) Receptor 3:87-97). Human pituitary was purchased from the National Hormone and Peptide Program. […] Relative affinities compared to hGH-RH(1-29)NH2 were calculated as the ratio of IC50 (dose causing 50% inhibition of specific binding to receptors) of the tested peptides to the IC50 of hGH-RH(1-29)NH2. The values were calculated from technical duplicate tubes.
Nineteen new AVR analogs of GHRH were tested in the receptor binding assay. Table 6 presents the IC50 values of GHRH antagonists to membrane GHRH-receptors binding on human anterior pituitary cells.

[4] = system: PANC-1 pancreatic cancer cells; assay: In vitro cell viability, PANC-1; assay type: cell-based, human; details: antagonist 5 μM for 72 h, cell proliferation assay; MIA602 = 1
Protocol: as §1, §2, §3, §4

[5] = system: PC3 prostatic cancer cells; assay: In vitro cell viability, PC3; assay type: cell-based, human; details: antagonist 5 μM for 72 h, cell proliferation assay; MIA602 = 1
Protocol: as §1, §2, §3
Inhibitory effects of selected AVR compounds in comparison to that of MIA602 are presented as inhibitory potency (e.g., percentage of inhibition). […] The cell lines tested including lung cancer HCC827 (FIG. 2A), pancreatic cancer CFPAC-1 (FIG. 2B), stomach cancer N87 (FIG. 2C), colon cancer HT-29 (FIG. 2D), breast cancers MX-1 and HCC1806 (FIGS. 2 E, F). […]

[6] = system: HCC1806 breast cancer cells; assay: In vitro cell viability, HCC1806; assay type: cell-based, human; details: antagonist 5 μM for 72 h, cell proliferation assay; MIA602 = 1
Protocol: as §1, §2, §3, §4, §5

MX-1 breast cancer cells = assay: In vitro cell viability, MX-1; assay type: cell-based, human; details: antagonist 5 μM for 72 h, cell proliferation assay; MIA602 = 1
Protocol: as §1, §2, §3, §4, §5

CCCC[C@H](NC(=O)[C@@H](NC(=O)[C@H](CC(=O)O)NC(=O)[C@H](CCC(N)=O)NC(=O)[C@H](CC(C)C)NC(=O)[C@H](CC(C)C)NC(=O)[C@H](CCCCN)NC(=O)[C@H](CCCNC(=N)N)NC(=O)[C@H](C)NC(=O)[C@H](CO)NC(=O)[C@H](CC(C)C)NC(=O)[C@H](CCC(N)=O)NC(=O)[C@H](CC)NC(=O)[C@H](CC(C)C)NC(=O)[C@@H](NC(=O)[C@H](CCCCN)NC(=O)[C@H](CCCNC(=N)N)NC(=O)[C@H](Cc1ccc(OC)cc1)NC(=O)[C@H](CCCNC(=N)N)NC(=O)[C@H](CC(N)=O)NC(=O)[C@@H](NC(=O)[C@H](Cc1ccc(Cl)cc1)NC(=O)[C@@H](NC(=O)[C@H](C)NC(=O)[C@H](CC(=O)O)NC(=O)[C@@H](CCCNC(=N)N)NC(=O)[C@H](Cc1ccc(O)cc1)NC(=O)CCCCCCCCCCCNC(=O)Cc1ccccc1)[C@@H](C)CC)[C@@H](C)O)C(C)C)[C@@H](C)CC)C(=O)N[C@H](CCCNC(=N)N)C(=O)N[C@@H](CCCCNC(=N)N)C(=O)NC [AVR-234, PhAC-Ada-Tyr-DArg-Asp-Ala-Ile-Cpa-Thr-Asn-Arg-Tyr(Me)-Arg-Lys-Val-Leu-Abu-Gln-Leu-Ser-Ala-Arg-Lys-Leu-Leu-Gln-Asp-Ile-Nle-DArg-Har-NHCH3] ({PhAc-12Ado}-Y[dR]DAI[Phe(4-Cl)]TNRY(Me)RKVL[Abu]QLSARKLLQDI[Nle][dR][hArg]-NHMe)
relative inhibitory potency in comparison to MIA-602, Stomach KATOIII [1]: 1.709 | relative inhibitory potency in comparison to MIA-602, Lung IICC827 (HCC827 lung cancer cells): 4.510 | relative inhibitory potency in comparison to MIA-602, Pancreatic CFPAC-1 [2]: 2.205 | IC50 [3]: 450 pM

CCCC[C@H](NC(=O)[C@@H](NC(=O)[C@H](CC(=O)O)NC(=O)[C@H](CCC(N)=O)NC(=O)[C@H](CC(C)C)NC(=O)[C@H](CC(C)C)NC(=O)[C@H](CCCCN)NC(=O)[C@H](CCCNC(=N)N)NC(=O)[C@H](C)NC(=O)[C@H](CO)NC(=O)[C@H](CC(C)C)NC(=O)[C@H](CCC(N)=O)NC(=O)[C@H](CC)NC(=O)[C@H](CC(C)C)NC(=O)[C@@H](NC(=O)[C@H](CCCCN)NC(=O)[C@H](CCCNC(=N)N)NC(=O)[C@H](Cc1ccc(O)cc1)NC(=O)[C@H](CCCNC(=N)N)NC(=O)[C@H](C)NC(=O)[C@@H](NC(=O)[C@H](Cc1ccc(Cl)cc1)NC(=O)[C@@H](NC(=O)[C@H](C)NC(=O)[C@H](CC(=O)O)NC(=O)[C@@H](CCCNC(=N)N)NC(=O)[C@H](Cc1ccc(O)cc1)NC(=O)CCCCCCCCCCCNC(=O)Cc1ccccc1)[C@@H](C)CC)[C@@H](C)O)C(C)C)[C@@H](C)CC)C(=O)N[C@H](CCCNC(=N)N)C(=O)N[C@@H](CCCCNC(=N)N)C(N)=O [AVR-107, PhAC-Ada-Tyr-DArg-Asp-Ala-Ile-Cpa-Thr-Ala-Arg-Tyr-Arg-Lys-Val-Leu-Abu-Gln-Leu-Ser-Ala-Arg-Lys-Leu-Leu-Gln-Asp-Ile-Nle-DArg-Har-NH2] ({PhAc-12Ado}-Y[dR]DAI[Phe(4-Cl)]TARYRKVL[Abu]QLSARKLLQDI[Nle][dR][hArg]-NH2)
relative inhibitory potency in comparison to MIA-602, Stomach KATOIII [1]: 1.295 | relative inhibitory potency in comparison to MIA-602, Pancreatic CFPAC-1 [2]: 1.080 | relative inhibitory potency in comparison to MIA-602, Pancreatic Panc-1 [4]: 1.160 | relative inhibitory potency in comparison to MIA-602, Prostatic PC3 [5]: 0.800 | relative inhibitory potency in comparison to MIA-602, Breast IICC1806 [6]: 0.950 | relative inhibitory potency in comparison to MIA-602, Breast MX-1 (MX-1 breast cancer cells): 1.010 | IC50 [3]: 610 pM
